Source: patent publication US12479816B2, “20-HETE formation inhibitors” (UNIVERSITY OF PITTSBURGH—OF THE COMMONWEALTH SYSTEM OF …, priority 2019, dated 2025)
Like-named read-outs stand apart in the source and are kept apart here.

Assays:
[1] = tested on: 20-HETE formation (CYP4) in HLM; assay: Inhibition of 20-HETE formation at 250 or 500 nM in HLM microsomal incubations; format: biochemical, human; details: 500 nM compound; HLM 300 μg/ml, AA 100 μM, 20 min
Method in brief: (§1)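 Protein 300 μg/ml (microsomes) / 25 pmol/mL (rCYP4F2); AA 100 μM; NADPH 1 mM start; KPi 0.12 M + 5 mM MgCl2; 20 min, 37° C. Read-out: 20-HETE by UPLC-MS/MS (d6 IS), % of vehicle, n=3.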

rCYP4F2 = target: T1, rCYP4F2 (Homo sapiens, UniProt P78329); assay: Inhibition of 20-HETE formation at 250 or 500 nM in rCYP4F2 incubations; format: biochemical; details: 500 nM compound; rCYP4F2 25 pmol/mL; read-out: rCYP4F2 % inh. @ 500 nM
T1 sequence (P78329 5-520): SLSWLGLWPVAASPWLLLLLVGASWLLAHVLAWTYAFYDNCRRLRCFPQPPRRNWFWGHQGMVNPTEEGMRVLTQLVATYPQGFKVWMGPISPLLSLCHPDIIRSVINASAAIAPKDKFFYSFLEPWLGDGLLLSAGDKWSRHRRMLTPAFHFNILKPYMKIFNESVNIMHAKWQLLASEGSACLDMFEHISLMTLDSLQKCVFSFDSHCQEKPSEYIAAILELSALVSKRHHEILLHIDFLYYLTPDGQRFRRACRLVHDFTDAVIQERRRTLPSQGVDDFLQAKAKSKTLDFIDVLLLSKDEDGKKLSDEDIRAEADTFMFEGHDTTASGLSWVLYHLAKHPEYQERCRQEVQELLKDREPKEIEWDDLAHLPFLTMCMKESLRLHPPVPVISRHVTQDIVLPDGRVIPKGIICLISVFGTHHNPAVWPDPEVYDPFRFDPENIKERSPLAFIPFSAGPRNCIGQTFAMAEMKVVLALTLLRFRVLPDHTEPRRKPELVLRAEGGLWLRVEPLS
Method in brief: as §1

[2] = HLM stability determination; format: in vitro ADME, human; details: HLM 500 μg/ml, 1 μM compound, NADPH, relative to 0 min
Procedure: HLM stability determinations shown in Table 3 were obtained as follows. Microsomal incubates contained HLM (500 μg/ml), test compounds (1 μM) and NADPH (1.3 mM) in a 1 ml total volume of microsomal incubation buffer (0.12 M potassium phosphate buffer containing 5 mM magnesium chloride). Reaction was started by adding NADPH to the incubates and was carried out at 37° C. in a shaking water bath for 60 min. At 0, 15, 30, 45, 60 min, a 50 μl aliquot of incubates was taken out and reaction was stopped by adding aliquot into 200 μl ice-cold acetonitrile. After centrifugation at 14000×g for 5 min, 200 μl supernatant was taken out for UPLC-MS/MS analysis as described above. Values at 0 min were used as corresponding control for test compounds. Varapamil, metoprolol, and warfarin, categorized as fast, moderate and slow metabolism, were used as positive control. Incubates without NADPH group served as negative control.

[3] = tested on: 20-HETE formation (CYP4) in RLM; assay: Inhibition of 20-HETE formation at 250 or 500 nM in RLM microsomal incubations; format: biochemical, rat; details: 500 nM compound; RLM 300 μg/ml
Method in brief: as §1

[4] = tested on: 20-HETE formation (CYP4) in HLM; assay: IC50 determination, 20-HETE formation in HLM; format: biochemical, human; details: HLM 300 μg/ml, AA 100 μM, 12 concentrations
Procedure: Microsomal incubations contained HLM, RLM (300 μg/ml), AA (100 μM), NADPH (1 mM) and test compounds at 12 concentrations (0.1 nM-50 μM) in a 1 ml total volume in microsomal incubation buffer (0.12 M potassium phosphate buffer containing 5 mM magnesium chloride). Reaction was started by adding NADPH to the incubates and was carried out at 37° C. in a shaking water bath for 20 min. Reaction was stopped by placing tubes on ice, followed by adding 12.5 μl 20-HETE-d6 as internal standard to each sample. Microsomal incubations were extracted with 3 ml ethyl ether twice, dried down under nitrogen gas and reconstituted in 125 μl 80:20 methanol:deionized H2O for analysis. 20-HETE formation was quantified using the validated UPLC-MS/MS assay described above and normalized by vehicle group. HET0016 (250 nM) was used as positive control. Incubates without NADPH group served as the negative control. IC50 was determined by fitting the dose-response curve using Graphpad Prism nonlinear regression.

[5] = tested on: 20-HETE formation (CYP4) in RKM; assay: Inhibition of 20-HETE formation at 250 or 500 nM in RKM microsomal incubations; format: biochemical, rat; details: 500 nM compound; RKM 300 μg/ml
Method in brief: as §1

[6] = Turbidometric solubility determination; format: physicochemical; details: PBS with 1% DMSO, aqueous buffer, kinetic from dmso stock, room temperature
Method in brief: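 Precipitation was detected as a significant rise in absorbance at 620 nm over background, and this point set the maximum solubility. Compound was tested in PBS with 1% DMSO at final concentrations from 0 to 600 μM, in triplicate, after 2 h of shaking at room temperature.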

MDR1 (P-gp) = assay: BBB penetration potential, MDR1-MDCK permeability; format: in vitro ADME; details: dog; for Papp A→B at 120 min, 5 μM: apical to basolateral, pH 7.4, read-out: BBB penetration potential MDCK A-B 10−6 cm/s; for Papp B→A at 120 min, 5 μM: basolateral to apical, pH 7.4, read-out: BBB penetration potential MDCK B-A 10−6 cm/s
Procedure: BBB penetration potential assessment data in Table 1 was obtained as follows. MDR1-MDCK cell monolayers were grown to confluence on collagen-coated, microporous membranes in 12-well assay plates. Atenolol, propranolol and digoxin were used as control to assess plate quality. The permeability assay buffer was Hanks' balanced salt solution containing 10 mM HEPES and 15 mM glucose at a pH of 7.4. The buffer in the receiver chamber also contained 1% bovine serum albumin. The dosing solution concentration was 5 μM of test article in the assay buffer. Cell monolayers were dosed on the apical side (A-to-B) or basolateral side (B-to-A) and incubated at 37° C. with 5% CO2 in a humidified incubator. Samples were taken from the donor and receiver chambers at 120 minutes. Each determination was performed in duplicate the flux of lucifer yellow was also measured post-experimentally for each monolayer to ensure no damage was inflicted to the cell monolayers during the flux period. All samples were assayed by LC-MS/MS using electrospray ionization using a PE SCIEX API 4000 spectrometer and total run time of 1 min. Analytical method/conditions were: Liquid Chromatography Column: Waters ACQUITY UPLC BEH Phenyl 30×2.1 mm, 1.7 m; M.P. Buffer: 25 mM ammonium formate buffer, pH 3.5; Aqueous Reservoir (A): 90% water, 10% buffer; Organic Reservoir (B): 90% acetonitrile, 10% buffer; Flow Rate: 0.7 mL/minute; gradient program: 99% A (t=0 min), 1% A (t=0.65 min), 1% A (t=0.75 min), 99% A (t=0.8 min), 99% A (t=1 min); 5 μL injection volume
The apparent permeability (Papp) and percent recovery were calculated as follows: Papp=(dCr/dt)×Vr/(A×CA) (1) Percent Recovery=100×((Vr×Cr^final)+(Vd×Cd^final))/(Vd×CN) (2)
wherein: • dCr/dt is the slope of the cumulative concentration in the receiver compartment versus time in μMs^−1; • Vr is the volume of the receiver compartment in cm^3; • Vd is the volume of the donor compartment in cm^3; • A is the area of the insert (1.13 cm^2 for 12-well); • CA is the average of the nominal dosing concentration and the measured 120 minute donor concentration in μM; • CN is the nominal concentration of the dosing solution in μM; • Cr^final is the cumulative receiver concentration in μM at the end of the incubation period; • Cd^final is the concentration of the donor in μM at the end of the incubation period. Efflux ratio (ER) is defined as Papp (B-to-A)/Papp (A-to-B) Interpretation Brain Penetration Potential Classification: • Papp (A-to-B)≥3.0 and ER<3.0: High • Papp (A-to-B)≥3.0 and 10>ER≥3.0: Moderate • Papp (A-to-B)≥3.0 and ER≥10, or Papp (A-to-B)<3.0 Low

| Compound | HLM % inh. @ 500 nM [1] [%] | inhibition at 0.5 µM (rCYP4F2) [%] | Stability HLM % @ 30 min [2] [%] | RLM % inh. @ 500 nM [3] [%] | IC50 [4] [µM] | RKM % inh. @ 500 nM [5] [%] | solubility at 2 h ([6]; OD620, read-out: Max Solub) [µM] | solubility at 2 h ([6]; read-out: Solubility_ug/mL) [µg/mL] | Papp A→B at 120 min, 5 μM (MDR1 (P-gp)) [×10⁻⁶ cm/s] | Papp B→A at 120 min, 5 μM (MDR1 (P-gp)) [×10⁻⁶ cm/s] |
| --- | --- | --- | --- | --- | --- | --- | --- | --- | --- | --- |
| COc1cncc(C2CCN(c3ccn[nH]3)CC2)c1 [Compound 60, 3-(1-(1H-Pyrazol-5-yl)piperidin-4-yl)-5-methoxypyridine] | 3.70 | 38.4 | 100 | 0.00 | – | – | – | – | – | – |
| COc1ccc(C2CCN(c3cn[nH]c3)CC2)c(F)c1 [Compound 47, 4-(2-Fluoro-4-methoxyphenyl)-1-(1H-pyrazol-4-yl)piperidine] | 82.00 | 88 | 100 | 63.00 | 0.08 | 0.00 | – | – | – | – |
| COCc1ccc(C2CCN(c3cn[nH]c3)CC2)cc1 [Compound 26, 4-(4-(Methoxymethyl)phenyl)-1-(1H-pyrazol-4-yl)piperidine] | 71.70 | 81.7 | 100 | 27.80 | 0.2 | – | 366 | 99.4 | – | – |
| c1ccc(OC2CCN(c3cn[nH]c3)CC2)cc1 [Compound 14, 4-Phenoxy-1-(1H-pyrazol-4-yl)piperidine] | 53.00 | 60 | 97 | 0.00 | 0.22 | – | – | – | – | – |
| COc1cncc(C2CCN(c3cn[nH]c3)CC2)c1 [Compound 59, 3-(1-(1H-Pyrazol-4-yl)piperidin-4-yl)-5-methoxypyridine] | 63.30 | 73.7 | 98 | 64.40 | 0.19 | – | > 600 | 155 | – | – |
| Cc1ccc(C2CCN(c3cn[nH]c3)CC2)cc1 [Compound 24, 1-(1H-Pyrazol-4-yl)-4-(p-tolyl)piperidine] | 73.80 | 79.9 | 92 | 16.30 | 0.08 | – | 85.4 | 20.6 | – | – |
| c1ccc(SC2CCN(c3cn[nH]c3)CC2)cc1 [Compound 40, 4-(Phenylthio)-1-(1H-pyrazol-4-yl)piperidine] | 65.80 | 75.9 | 82 | 7.80 | 0.1 | – | 95.5 | 24.8 | – | – |
| COCc1ccc(C2CCN(c3ccn[nH]3)CC2)cc1 [Compound 25, 4-(4-(Methoxymethyl)phenyl)-1-(1H-pyrazol-5-yl)piperidine] | 56.40 | 67.8 | 100 | 21.30 | 0.28 | – | 235 | 63.9 | – | – |
| Cc1ccc(CC2CCN(c3cn[nH]c3)CC2)cc1 [Compound 116, 4-(4-Methylbenzyl)-1-(1H-pyrazol-4-yl)piperidine] | 86.40 | 89.3 | – | 59.60 | – | – | 71 | – | 77.4 | 70.3 |
| CCS(=O)(=O)c1ccc(C2CCN(c3ccn[nH]3)CC2)cc1 [Compound 58, 4-(4-(Ethylsulfonyl)phenyl)-1-(1H-pyrazol-5-yl)piperidine] | 67.40 | 70.6 | 97 | 0.00 | 0.11 | – | 394 | 126 | – | – |
| CCS(=O)(=O)c1ccc(C2CCN(c3cn[nH]c3)CC2)cc1 [Compound 52, 4-(4-(Ethylsulfonyl)phenyl)-1-(1H-pyrazol-4-yl)piperidine] | 84.10 | 74.8 | 100 | 13.40 | 0.08 | – | 244 | 78 | – | – |
| O=C1CCCN1Cc1ccc(C2CCN(c3cn[nH]c3)CC2)cc1F [Compound 109, 1-(4-(1-(1H-Pyrazol-4-yl)piperidin-4-yl)-2-fluorobenzyl)pyrrolidin-2-one] | 90.30 | 86 | – | 62.70 | – | – | > 600 | – | 10.8 | 77.5 |
| Cc1ccc(C2CCN(c3ccn[nH]3)CC2)cc1 [Compound 23, 1-(1H-Pyrazol-5-yl)-4-(p-tolyl)piperidine] | 67.40 | 70.8 | 61 | 0.00 | 0.11 | – | 166 | 40.1 | – | – |
